Reference: publication PMC5218480 (PLoS ONE, 2017)

Test system: MV-4-11 cells
Assay: Gene expression microarray analysis (Affymetrix PrimeView) and GSEA
Assay type: cell-based, human
Parameters: RFU PODN (11730768_x_at) / Fold change /veh PODN (11730768_x_at) / RFU LINC00158 (11744669_a_at) / Fold change /veh LINC00158 (11744669_a_at) / RFU DUSP10 (11751237_a_at) / Fold change /veh DUSP10 (11751237_a_at) / RFU ID3 (11757404_x_at) / Fold change /veh ID3 (11757404_x_at) / RFU PLEKHG5 (11737974_s_at) / Fold change /veh PLEKHG5 (11737974_s_at) / RFU LRRC4B (11730491_at) / Fold change /veh LRRC4B (11730491_at) / RFU GIMAP4 (11747438_a_at) / Fold change /veh GIMAP4 (11747438_a_at) / RFU KRT8 (11758183_x_at) / Fold change /veh KRT8 (11758183_x_at) / RFU CNN1 (11734310_a_at) / Fold change /veh CNN1 (11734310_a_at) / RFU VPS37D (11726825_at) / Fold change /veh VPS37D (11726825_at) / RFU C10orf10 (11716522_x_at) / Fold change /veh C10orf10 (11716522_x_at) / RFU KIR2DL2 /// KIR2DL4 /// KIR2DL5A /// KIR2DL5B /// KIR2DS1 /// KIR2DS2 /// KIR2DS3 /// KIR2DS4 /// KIR3DL3 /// KIR3DL3 /// KIR3DS1 (11738374_at) / Fold change /veh KIR2DL2 /// KIR2DL4 /// KIR2DL5A /// KIR2DL5B /// KIR2DS1 /// KIR2DS2 /// KIR2DS3 /// KIR2DS4 /// KIR3DL3 /// KIR3DL3 /// KIR3DS1 (11738374_at) / RFU C1QL1 (11718748_at) / Fold change /veh C1QL1 (11718748_at) / RFU TMPRSS4 (11747572_a_at) / Fold change /veh TMPRSS4 (11747572_a_at) / RFU HAMP (11756126_x_at) / Fold change /veh HAMP (11756126_x_at) / RFU RNFT2 (11725882_a_at) / Fold change /veh RNFT2 (11725882_a_at) / RFU NR4A2 (11747474_a_at) / Fold change /veh NR4A2 (11747474_a_at) / RFU ABCC12 (11746883_a_at) / Fold change /veh ABCC12 (11746883_a_at) / RFU TMEM136 (11760407_x_at) / Fold change /veh TMEM136 (11760407_x_at) / RFU CLDN22 /// WWC2 (11732394_at) / Fold change /veh CLDN22 /// WWC2 (11732394_at) / RFU HLA-DPB1 (11760878_x_at) / Fold change /veh HLA-DPB1 (11760878_x_at) / RFU SPINT1 (11716480_a_at) / Fold change /veh SPINT1 (11716480_a_at) / RFU GAP43 (11754022_s_at) / Fold change /veh GAP43 (11754022_s_at) / RFU A4GNT (11735810_at) / Fold change /veh A4GNT (11735810_at) / RFU PRB3 (11715151_x_at) / Fold change /veh PRB3 (11715151_x_at) / RFU TUBB4B (11761932_at) / Fold change /veh TUBB4B (11761932_at) / RFU CAPN14 (11732068_a_at) / Fold change /veh CAPN14 (11732068_a_at) / RFU TMCC2 (11721928_a_at) / Fold change /veh TMCC2 (11721928_a_at) / RFU IRGQ (11745062_a_at) / Fold change /veh IRGQ (11745062_a_at) / RFU FAM174B (11720279_a_at) / Fold change /veh FAM174B (11720279_a_at) / RFU TMPRSS4 (11748680_a_at) / Fold change /veh TMPRSS4 (11748680_a_at) / RFU FAM212B (11763350_a_at) / Fold change /veh FAM212B (11763350_a_at) / RFU PLEKHG5 (11743358_a_at) / Fold change /veh PLEKHG5 (11743358_a_at) / RFU ZSCAN30 (11745921_a_at) / Fold change /veh ZSCAN30 (11745921_a_at) / RFU CMKLR1 (11741424_a_at) / Fold change /veh CMKLR1 (11741424_a_at) / RFU LOC101060620 /// MAPK8IP1 (11723275_at) / Fold change /veh LOC101060620 /// MAPK8IP1 (11723275_at) / RFU SPTSSB (11747773_x_at) / Fold change /veh SPTSSB (11747773_x_at) / RFU PRSS12 (11739890_at) / Fold change /veh PRSS12 (11739890_at) / RFU BIN1 (11741810_x_at) / Fold change /veh BIN1 (11741810_x_at) / RFU WNT11 (11732464_a_at) / Fold change /veh WNT11 (11732464_a_at) / RFU C10orf10 (11716521_a_at) / Fold change /veh C10orf10 (11716521_a_at) / RFU C5orf56 (11738089_at) / Fold change /veh C5orf56 (11738089_at) / RFU CYB561 (11721691_x_at) / Fold change /veh CYB561 (11721691_x_at) / RFU ANKRD19P (11752326_a_at) / Fold change /veh ANKRD19P (11752326_a_at) / RFU OR2T12 /// OR2T33 /// OR2T8 (11738714_s_at) / Fold change /veh OR2T12 /// OR2T33 /// OR2T8 (11738714_s_at) / RFU VCAN (11748164_a_at) / Fold change /veh VCAN (11748164_a_at) / RFU JSRP1 (11732532_at) / Fold change /veh JSRP1 (11732532_at) / RFU KRTAP10-11 (11738290_x_at) / Fold change /veh KRTAP10-11 (11738290_x_at) / RFU MYO3A (11730013_a_at) / Fold change /veh MYO3A (11730013_a_at) / RFU EBF3 (11725865_a_at) / Fold change /veh EBF3 (11725865_a_at) / RFU CAMK2N1 (11719241_x_at) / Fold change /veh CAMK2N1 (11719241_x_at) / RFU C5orf56 (11738088_a_at) / Fold change /veh C5orf56 (11738088_a_at) / RFU OLFML3 (11715873_a_at) / Fold change /veh OLFML3 (11715873_a_at) / RFU LOC100653217 /// NTM (11731650_a_at) / Fold change /veh LOC100653217 /// NTM (11731650_a_at) / RFU MAPK11 (11762145_a_at) / Fold change /veh MAPK11 (11762145_a_at) / RFU FIZ1 (11724087_x_at) / Fold change /veh FIZ1 (11724087_x_at) / RFU OASL (11726364_x_at) / Fold change /veh OASL (11726364_x_at) / RFU SOX15 (11748057_x_at) / Fold change /veh SOX15 (11748057_x_at) / RFU CD79A (11719716_a_at) / Fold change /veh CD79A (11719716_a_at) / RFU HIST1H1D (11736915_at) / Fold change /veh HIST1H1D (11736915_at) / RFU CASKIN2 (11723855_a_at) / Fold change /veh CASKIN2 (11723855_a_at) / RFU LOC730098 (11760151_x_at) / Fold change /veh LOC730098 (11760151_x_at) / RFU OR4N2 (11742367_at) / Fold change /veh OR4N2 (11742367_at) / RFU PRRT2 (11749266_a_at) / Fold change /veh PRRT2 (11749266_a_at) / RFU SNX32 (11753110_a_at) / Fold change /veh SNX32 (11753110_a_at) / RFU CDHR5 (11726645_a_at) / Fold change /veh CDHR5 (11726645_a_at) / RFU RCAN1 (11760418_a_at) / Fold change /veh RCAN1 (11760418_a_at) / RFU FAM167A (11723789_a_at) / Fold change /veh FAM167A (11723789_a_at) / RFU FAM26E (11764081_at) / Fold change /veh FAM26E (11764081_at) / RFU ISYNA1 (11749810_s_at) / Fold change /veh ISYNA1 (11749810_s_at) / RFU ACY1 (11761880_at) / Fold change /veh ACY1 (11761880_at) / RFU 11764098_at / Fold change /veh 11764098_at / RFU SAMD14 (11745864_x_at) / Fold change /veh SAMD14 (11745864_x_at) / RFU NPB (11741838_a_at) / Fold change /veh NPB (11741838_a_at) / RFU TMPRSS6 (11731388_a_at) / Fold change /veh TMPRSS6 (11731388_a_at) / RFU KRTAP10-2 (11738614_at) / Fold change /veh KRTAP10-2 (11738614_at) / RFU ARHGAP8 /// PRR5-ARHGAP8 (11727945_x_at) / Fold change /veh ARHGAP8 /// PRR5-ARHGAP8 (11727945_x_at) / RFU KRTAP5-7 /// NADSYN1 (11734609_at) / Fold change /veh KRTAP5-7 /// NADSYN1 (11734609_at) / RFU RASL12 (11751679_a_at) / Fold change /veh RASL12 (11751679_a_at) / RFU CDKN2B (11736163_a_at) / Fold change /veh CDKN2B (11736163_a_at) / RFU PRF1 (11729649_at) / Fold change /veh PRF1 (11729649_at) / RFU, ZNF638 /// ZNF638-IT1 / Fold change vs veh, ZNF638 /// ZNF638-IT1 / RFU, PANK3 / Fold change vs veh, PANK3 / RFU, SH3YL1 / Fold change vs veh, SH3YL1 / RFU, ZEB2 / Fold change vs veh, ZEB2 / RFU, NRIP1 / Fold change vs veh, NRIP1 / RFU, PTTG1IP / Fold change vs veh, PTTG1IP / RFU, CAPN2 / Fold change vs veh, CAPN2 / RFU, MED14 / Fold change vs veh, MED14 / RFU, SNORA58 / Fold change vs veh, SNORA58 / RFU, C1orf63 / Fold change vs veh, C1orf63 / RFU, LRRFIP1 / Fold change vs veh, LRRFIP1 / RFU, NDUFAF7 / Fold change vs veh, NDUFAF7 / RFU, SLC12A2 / Fold change vs veh, SLC12A2 / RFU, IBTK / Fold change vs veh, IBTK / RFU, ESF1 / Fold change vs veh, ESF1 / Fold change vs veh, TMEM50B / RFU, TAOK1 / Fold change vs veh, TAOK1 / RFU, ACBD3 / Fold change vs veh, ACBD3 / RFU, TMA16 / Fold change vs veh, TMA16 / RFU, RWDD3 / Fold change vs veh, RWDD3 / RFU, BCAT1 / Fold change vs veh, BCAT1 / RFU, EDEM3 / Fold change vs veh, EDEM3 / RFU, TMEM33 / Fold change vs veh, TMEM33 / RFU, WDR75 / Fold change vs veh, WDR75 / RFU, AHCTF1 / Fold change vs veh, AHCTF1 / RFU, TFRC / Fold change vs veh, TFRC / RFU, ZDHHC17 / Fold change vs veh, ZDHHC17 / RFU, NOM1 / Fold change vs veh, NOM1 / RFU, ARL8B / Fold change vs veh, ARL8B / RFU, ZBTB11 / Fold change vs veh, ZBTB11 / RFU, TAMM41 / Fold change vs veh, TAMM41 / RFU, KIAA1704 /// LOC100996395 / Fold change vs veh, KIAA1704 /// LOC100996395 / RFU, ING1 / Fold change vs veh, ING1 / RFU, TRMT61B / Fold change vs veh, TRMT61B / RFU, FUBP3 / Fold change vs veh, FUBP3 / RFU, TP53 / Fold change vs veh, TP53 / RFU, TNKS2 / Fold change vs veh, TNKS2 / RFU, ZFP14 / Fold change vs veh, ZFP14 / RFU, ACTR2 / Fold change vs veh, ACTR2 / RFU, PPP3R1 / Fold change vs veh, PPP3R1 / RFU, PIK3R1 / Fold change vs veh, PIK3R1 / RFU, HNRNPA1 / Fold change vs veh, HNRNPA1 / RFU, RNF170 / Fold change vs veh, RNF170 / RFU, ZNF28 / Fold change vs veh, ZNF28 / RFU, RNGTT / Fold change vs veh, RNGTT / RFU, OGT / Fold change vs veh, OGT / RFU, BRD1 / Fold change vs veh, BRD1 / RFU, MARS / Fold change vs veh, MARS / RFU, ZNF655 / Fold change vs veh, ZNF655 / RFU, FAHD1 / Fold change vs veh, FAHD1 / RFU, BDP1 / Fold change vs veh, BDP1 / RFU, LRRCC1 / Fold change vs veh, LRRCC1 / RFU, ARID1A / Fold change vs veh, ARID1A / RFU, ZNF146 / Fold change vs veh, ZNF146 / RFU, ZNF330 / Fold change vs veh, ZNF330 / RFU, GPN3 / Fold change vs veh, GPN3 / RFU, C9orf123 / Fold change vs veh, C9orf123 / RFU, N4BP2L2 / Fold change vs veh, N4BP2L2 / RFU, ARFIP1 / Fold change vs veh, ARFIP1 / RFU, FAM179B / Fold change vs veh, FAM179B / RFU, BCL10 / Fold change vs veh, BCL10 / RFU, UHRF1BP1L / Fold change vs veh, UHRF1BP1L / RFU, BET1 / Fold change vs veh, BET1 / RFU, CNOT2 / Fold change vs veh, CNOT2 / RFU, ZNF268 / Fold change vs veh, ZNF268 / Fold change vs veh, ZNF507 / RFU, DGCR2 / Fold change vs veh, DGCR2 / RFU, WDSUB1 / Fold change vs veh, WDSUB1 / Fold change vs veh, HSP90B1 /// MIR3652 / RFU, ADSS / Fold change vs veh, ADSS / RFU, GK / Fold change vs veh, GK / RFU, ZNF148 / Fold change vs veh, ZNF148 / RFU, TAF9 / Fold change vs veh, TAF9 / RFU, SLC1A5 / Fold change vs veh, SLC1A5 / RFU, SLMO2 / Fold change vs veh, SLMO2 / RFU, ABCC4 / Fold change vs veh, ABCC4 / RFU, LOC101060439 /// RAP1B / Fold change vs veh, LOC101060439 /// RAP1B / RFU, RFX7 / Fold change vs veh, RFX7 / RFU, GTPBP10 / Fold change vs veh, GTPBP10 / RFU, CNEP1R1 / Fold change vs veh, CNEP1R1 / RFU, BIVM-ERCC5 /// ERCC5 / Fold change vs veh, BIVM-ERCC5 /// ERCC5 / RFU, ILF3 / Fold change vs veh, ILF3 / RFU 11762660_at / Fold change /veh 11762660_at / RFU VCAN (11757783_s_at) / Fold change /veh VCAN (11757783_s_at) / RFU DDX43 (11728927_at) / Fold change /veh DDX43 (11728927_at) / RFU KRT8 (11758188_x_at) / Fold change /veh KRT8 (11758188_x_at) / RFU NKD1 (11759106_at) / Fold change /veh NKD1 (11759106_at) / RFU SRD5A1 (11742802_a_at) / Fold change /veh SRD5A1 (11742802_a_at) / RFU TPSAB1 /// TPSB2 (11721975_s_at) / Fold change /veh TPSAB1 /// TPSB2 (11721975_s_at) / RFU GSTM3 (11746129_a_at) / Fold change /veh GSTM3 (11746129_a_at) / RFU IL23R (11737362_x_at) / Fold change /veh IL23R (11737362_x_at) / RFU TMEM51 (11727254_a_at) / Fold change /veh TMEM51 (11727254_a_at) / RFU PIWIL2 (11732686_x_at) / Fold change /veh PIWIL2 (11732686_x_at) / RFU ORM1 (11744905_x_at) / Fold change /veh ORM1 (11744905_x_at) / RFU CCDC152 (11743942_at) / Fold change /veh CCDC152 (11743942_at) / RFU ECM1 (11717891_a_at) / Fold change /veh ECM1 (11717891_a_at) / RFU IL23R (11748794_a_at) / Fold change /veh IL23R (11748794_a_at) / RFU TNFAIP8L3 (11732012_x_at) / Fold change /veh TNFAIP8L3 (11732012_x_at) / RFU MBOAT4 (11741988_at) / Fold change /veh MBOAT4 (11741988_at) / RFU 11764193_at / Fold change /veh 11764193_at / RFU TMEM53 (11763286_at) / Fold change /veh TMEM53 (11763286_at) / RFU MAGEB2 (11727129_at) / Fold change /veh MAGEB2 (11727129_at) / RFU TMEM200A (11744735_a_at) / Fold change /veh TMEM200A (11744735_a_at) / RFU CCDC152 (11751479_a_at) / Fold change /veh CCDC152 (11751479_a_at) / RFU FAM211A (11726209_a_at) / Fold change /veh FAM211A (11726209_a_at) / RFU RGS16 (11746705_a_at) / Fold change /veh RGS16 (11746705_a_at) / RFU VCAN (11755009_s_at) / Fold change /veh VCAN (11755009_s_at) / RFU RHOB (11743442_s_at) / Fold change /veh RHOB (11743442_s_at) / RFU RGS16 (11720943_a_at) / Fold change /veh RGS16 (11720943_a_at) / RFU RGS16 (11720944_at) / Fold change /veh RGS16 (11720944_at) / RFU, VPS4B / Fold change vs veh, VPS4B / RFU, CREB1 / Fold change vs veh, CREB1 / RFU, DNAJC13 / Fold change vs veh, DNAJC13 / RFU, GNAQ / Fold change vs veh, GNAQ / RFU, CDK5R1 / Fold change vs veh, CDK5R1 / RFU, ZRANB3 / Fold change vs veh, ZRANB3 / RFU, CUL4A / Fold change vs veh, CUL4A / RFU, CCNY / Fold change vs veh, CCNY / RFU, UFL1 / Fold change vs veh, UFL1 / RFU, COG3 / Fold change vs veh, COG3 / RFU, DIAPH2 / Fold change vs veh, DIAPH2 / RFU, SKA2 / Fold change vs veh, SKA2 / RFU, AFF3 / Fold change vs veh, AFF3 / RFU, LMF1 / Fold change vs veh, LMF1 / RFU, IPO11 / Fold change vs veh, IPO11 / RFU, DFFB / Fold change vs veh, DFFB / RFU, FOXP1 / Fold change vs veh, FOXP1 / RFU, CARD8 / Fold change vs veh, CARD8 / RFU, STRN3 / Fold change vs veh, STRN3 / RFU, ADK / Fold change vs veh, ADK / RFU, RASSF2 / Fold change vs veh, RASSF2 / RFU, WIPF1 / Fold change vs veh, WIPF1 / RFU, LARP1B / Fold change vs veh, LARP1B / RFU, RASA1 / Fold change vs veh, RASA1 / RFU, RB1 / Fold change vs veh, RB1 / RFU, PPFIA1 / Fold change vs veh, PPFIA1 / RFU, MAT2A / Fold change vs veh, MAT2A / RFU, CCT5 / Fold change vs veh, CCT5 / RFU, WDR92 / Fold change vs veh, WDR92 / RFU, CUX1 / Fold change vs veh, CUX1 / RFU, TTC7A / Fold change vs veh, TTC7A / RFU, TMEM135 / Fold change vs veh, TMEM135 / RFU, DEPTOR / Fold change vs veh, DEPTOR / RFU, CPM / Fold change vs veh, CPM / RFU, DNAJB6 / Fold change vs veh, DNAJB6 / RFU, CACNA2D3 / Fold change vs veh, CACNA2D3 / RFU, DTX4 / Fold change vs veh, DTX4 / RFU, TFCP2 / Fold change vs veh, TFCP2 / RFU, GMCL1 /// GMCL1P1 / Fold change vs veh, GMCL1 /// GMCL1P1 / RFU, AEBP2 / Fold change vs veh, AEBP2 / RFU, SNHG1 /// SNORD22 /// SNORD25 /// SNORD26 /// SNORD27 /// SNORD28 /// SNORD29 /// SNORD31 / Fold change vs veh, SNHG1 /// SNORD22 /// SNORD25 /// SNORD26 /// SNORD27 /// SNORD28 /// SNORD29 /// SNORD31 / Fold change (Aza/veh), C12orf56 (ProbeSet 11735607_a_at) / Fold change (ACY-1035/veh), C12orf56 (ProbeSet 11735607_a_at) / Fold change (Aza/veh), FGFR1OP (ProbeSet 11751329_s_at) / Fold change (ACY-1035/veh), FGFR1OP (ProbeSet 11751329_s_at) / Fold change (Aza/veh), VPS36 (ProbeSet 11739960_a_at) / Fold change (ACY-1035/veh), VPS36 (ProbeSet 11739960_a_at) / RFU SYPL1 (11715823_x_at) / Fold change /veh SYPL1 (11715823_x_at) / RFU IGFBP7 (11715501_s_at) / Fold change /veh IGFBP7 (11715501_s_at) / RFU REEP3 (11722064_at) / Fold change /veh REEP3 (11722064_at) / RFU IGLL1 (11728026_x_at) / Fold change /veh IGLL1 (11728026_x_at): dose or concentration left out as unconfirmed
Details: MV-4-11 cells, 48 hours

SMILES: Nc1ccc(-c2cccs2)cc1NC(=O)c1ccc2c(c1)cc(C1CC1)n2CCN1CCOCC1 [ACY-1035]
- Fold change /veh PRRT2 (11749266_a_at): 1.00
